Activity calls are given as the source filed them. The rule behind the calls is not given here.
Key:
Mus musculus [1] = test: Cardioprotective activity in Swiss mouse model of myocardial infarction assessed as reversal of isoproterenol-induced increase in heart rate at 10 umol, ip administered 30 mins post isoproterenol stimulation and measured for 5 mins by electrocardiographic analysis; format: functional, organism-based
Mus musculus [2] = test: Cardioprotective activity in Swiss mouse model of myocardial infarction assessed as protection against isoproterenol-induced degeneration in myocardium at 10 umol, ip administered 30 mins post isoproterenol stimulation by H and E staining based histopathological analysis; format: functional, organism-based
Mus musculus [3] = test: Cardioprotective activity against isoproterenol-induced oxidative stress in Swiss mouse model of myocardial infarction assessed as reduction in lipid peroxidation at 10 umol, ip administered 30 mins post isoproterenol stimulation by TBARS method; format: functional, organism-based
Mus musculus [4] = test: Cardioprotective activity in Swiss mouse model of myocardial infarction assessed as protection against isoproterenol-induced discontinuity in myocardium at 10 umol, ip administered 30 mins post isoproterenol stimulation by H and E staining based histopathological analysis; format: functional, organism-based
Mus musculus [5] = test: Cardioprotective activity in Swiss mouse model of myocardial infarction assessed as protection against isoproterenol-induced wide spacing in myocardium at 10 umol, ip administered 30 mins post isoproterenol stimulation by H and E staining based histopathological analysis; format: functional, organism-based
Mus musculus [6] = test: Cardioprotective activity against isoproterenol-induced oxidative stress in Swiss mouse model of myocardial infarction assessed as reduction in caspase-3 expression at 10 umol, ip administered 30 mins post isoproterenol stimulation by Western blot analysis; format: functional, organism-based
Mus musculus [7] = test: Cardioprotective activity against isoproterenol-induced apoptosis in Swiss mouse model of myocardial infarction assessed as change in Bcl2 expression at 10 umol, ip administered 30 mins post isoproterenol stimulation by Western blot analysis; format: functional, organism-based
Mus musculus [8] = test: Cardioprotective activity against isoproterenol-induced apoptosis in Swiss mouse model of myocardial infarction assessed as reduction in Bax expression at 10 umol, ip administered 30 mins post isoproterenol stimulation by Western blot analysis; format: functional, organism-based
Mus musculus [9] = test: Cardioprotective activity against isoproterenol-induced oxidative stress in Swiss mouse model of myocardial infarction assessed as reduction in sulfhydryl level in cardiac tissue homogenate at 10 umol, ip administered 30 mins post isoproterenol stimulation by spectrophotometric method; format: functional, organism-based
Mus musculus [10] = test: Cardioprotective activity in Swiss mouse model of isoproterenol-induced myocardial infarction assessed as reduction in inflammatory cell infiltration in myocardium at 10 umol, ip administered 30 mins post isoproterenol stimulation by H and E staining based histopathological analysis; format: functional, organism-based
Mus musculus [11] = test: Cardioprotective activity against isoproterenol-induced oxidative stress in Swiss mouse model of myocardial infarction assessed as change in ferric ion reducing activity at 10 umol, ip administered 30 mins post isoproterenol stimulation by FRAP assay; format: functional, organism-based
Mus musculus [12] = test: Cardioprotective activity against isoproterenol-induced oxidative stress in Swiss mouse model of myocardial infarction assessed as increase in GPx activity at 10 umol, ip administered 30 mins post isoproterenol stimulation by spectrophotometric method; format: functional, organism-based
Mus musculus [13] = test: Cardioprotective activity in Swiss mouse model of isoproterenol-induced myocardial Infarction assessed as abnormal ST-segment at 10 umol, ip administered 30 mins post isoproterenol stimulation and measured for 5 mins by electrocardiographic analysis (reference value: 70%); format: functional
Mus musculus [14] = test: Cardioprotective activity in Swiss mouse model of isoproterenol-induced myocardial infarction assessed as reduction in myocardial infarct size at 10 umol, ip administered 30 mins post isoproterenol stimulation by TTC staining based assay; format: functional, organism-based
Mus musculus [15] = test: Cardioprotective activity in Swiss mouse model of myocardial infarction assessed as protection against isoproterenol-induced capillary congestion in myocardium at 10 umol, ip administered 30 mins post isoproterenol stimulation by H and E staining based histopathological analysis; format: functional, organism-based
Mus musculus [16] = test: Cardioprotective activity against isoproterenol-induced oxidative stress in Swiss mouse model of myocardial infarction assessed as reduction in ROS generation at 10 umol, ip administered 30 mins post isoproterenol stimulation by DHE staining based fluorescence assay; format: functional, organism-based
Mus musculus [17] = test: Cardioprotective activity against isoproterenol-induced oxidative stress in Swiss mouse model of myocardial infarction assessed as increase in catalase activity at 10 umol, ip administered 30 mins post isoproterenol stimulation by spectrophotometric method; format: functional, organism-based
Mus musculus [18] = test: Cardioprotective activity in Swiss mouse model of myocardial infarction assessed as protection against isoproterenol-induced mononuclear cell infiltration in myocardium at 10 umol, ip administered 30 mins post isoproterenol stimulation by H and E staining based histopathological analysis; format: functional, organism-based
Mus musculus [19] = test: Cardioprotective activity in Swiss mouse model of isoproterenol-induced myocardial infarction assessed as reduction in creatine kinase myocardial band at 10 umol, ip administered 30 mins post isoproterenol stimulation; format: functional, organism-based
Mus musculus [20] = test: Cardioprotective activity against isoproterenol-induced oxidative stress in Swiss mouse model of myocardial infarction assessed as reduction in protein carbonylation at 10 umol, ip administered 30 mins post isoproterenol stimulation by spectrophotometric method; format: functional, organism-based
Mus musculus [21] = test: Cardioprotective activity in Swiss mouse model of myocardial infarction assessed as protection against isoproterenol-induced vacuolation in myocardium at 10 umol, ip administered 30 mins post isoproterenol stimulation by H and E staining based histopathological analysis; format: functional, organism-based
Mus musculus [22] = test: Cardioprotective activity in Swiss mouse model of myocardial infarction assessed as reversal of isoproterenol-induced increase in QTc interval at 10 umol, ip administered 30 mins post isoproterenol stimulation and measured for 5 mins by electrocardiographic analysis; format: functional, organism-based
Mus musculus [23] = test: Cardioprotective activity in Swiss mouse model of isoproterenol-induced myocardial infarction assessed as reduction in lactate dehydrogenase at 10 umol, ip administered 30 mins post isoproterenol stimulation; format: functional, organism-based
Mus musculus [24] = test: Cardioprotective activity against isoproterenol-induced apoptosis in Swiss mouse model of myocardial infarction assessed as reduction in Bax/Bcl2 expression ratio in at 10 umol, ip administered 30 mins post isoproterenol stimulation by Western blot analysis; format: functional, organism-based
Mus musculus [25] = test: Cardioprotective activity against isoproterenol-induced oxidative stress in Swiss mouse model of myocardial infarction assessed as increase in SOD activity at 10 umol, ip administered 30 mins post isoproterenol stimulation by spectrophotometric method; format: functional, organism-based
Mus musculus [26] = test: Cardioprotective activity against isoproterenol-induced apoptosis in Swiss mouse model of myocardial infarction assessed as increase in Bcl2 expression at 1200 mg/kg administered 30 mins post isoproterenol stimulation by Western blot analysis; format: functional, organism-based
Mus musculus [27] = test: Cardioprotective activity in Swiss mouse model of isoproterenol-induced myocardial Infarction assessed as abnormal ST-segment at 1200 mg/kg administered 30 mins post isoproterenol stimulation and measured for 5 mins by electrocardiographic analysis (reference value: 70%); format: functional
Mus musculus [28] = test: Cardioprotective activity in Swiss mouse model of myocardial infarction assessed as reversal of isoproterenol-induced increase in QTc interval at 1200 mg/kg administered 30 mins post isoproterenol stimulation and measured for 5 mins by electrocardiographic analysis; format: functional, organism-based
Mus musculus [29] = test: Cardioprotective activity in Swiss mouse model of isoproterenol-induced myocardial infarction assessed as reduction in creatine kinase myocardial band at 1200 mg/kg administered 30 mins post isoproterenol stimulation; format: functional, organism-based
Mus musculus [30] = test: Cardioprotective activity against isoproterenol-induced apoptosis in Swiss mouse model of myocardial infarction assessed as reduction in Bax/Bcl2 expression ratio in at 1200 mg/kg administered 30 mins post isoproterenol stimulation by Western blot analysis; format: functional, organism-based
Mus musculus [31] = test: Cardioprotective activity against isoproterenol-induced apoptosis in Swiss mouse model of myocardial infarction assessed as reduction in Bax expression at 1200 mg/kg administered 30 mins post isoproterenol stimulation by Western blot analysis; format: functional, organism-based
Mus musculus [32] = test: Cardioprotective activity in Swiss mouse model of myocardial infarction assessed as reversal of isoproterenol-induced increase in heart rate at 1200 mg/kg administered 30 mins post isoproterenol stimulation and measured for 5 mins by electrocardiographic analysis; format: functional, organism-based
Mus musculus [33] = test: Cardioprotective activity in Swiss mouse model of isoproterenol-induced myocardial infarction assessed as reduction in lactate dehydrogenase at 1200 mg/kg administered 30 mins post isoproterenol stimulation; format: functional, organism-based
Mus musculus [34] = test: Cardioprotective activity in Swiss mouse model of isoproterenol-induced myocardial infarction assessed as reduction in myocardial infarct size at 1200 mg/kg administered 30 mins post isoproterenol stimulation by TTC staining based assay; format: functional, organism-based
Mus musculus [35] = test: Cardioprotective activity against isoproterenol-induced oxidative stress in Swiss mouse model of myocardial infarction assessed as reduction in ROS generation at 1200 mg/kg administered 30 mins post isoproterenol stimulation by DHE staining based fluorescence assay; format: functional, organism-based

`C=C(C)[C@H]1CC=C(C)CC1` [D-LIMONENE] was tested, and the Activity (Mus musculus [1]) was “Active”, the Activity (Mus musculus [2]) was “Active” and the Activity (Mus musculus [3]) was “Active”. For the same compound, the Activity (Mus musculus [4]) was “Active”, the Activity (Mus musculus [5]) was “Active” and the Activity (Mus musculus [6]) was “Active”. For the same compound, the Activity (Mus musculus [7]) was “inactive”, the Activity (Mus musculus [8]) was “Active” and the Activity (Mus musculus [9]) was “Active”. For the same compound, the Activity (Mus musculus [10]) was “Active”, the Activity (Mus musculus [11]) was “inactive” and the Activity (Mus musculus [12]) was “Active”. For the same compound, the Activity (Mus musculus [13]) was 30%, the Activity (Mus musculus [14]) was “Active” and the Activity (Mus musculus [15]) was “Active”. For the same compound, the Activity (Mus musculus [16]) was “Active”, the Activity (Mus musculus [17]) was “inactive” and the Activity (Mus musculus [18]) was “Active”. The Activity (Mus musculus [19]) was “Active”, the Activity (Mus musculus [20]) was “Active” and the Activity (Mus musculus [21]) was “Active”. For the same compound, the Activity (Mus musculus [22]) was “Active”, the Activity (Mus musculus [23]) was “Active” and the Activity (Mus musculus [24]) was “Active”. For the same compound, the Activity (Mus musculus [25]) was “Active”.
`CC(=O)N[C@@H](CS)C(=O)O` [ACETYLCYSTEINE] was tested, and the Activity (Mus musculus [26]) was “Active”, the Activity (Mus musculus [27]) was 20% and the Activity (Mus musculus [28]) was “Active”. For the same compound, the Activity (Mus musculus [29]) was “Active”, the Activity (Mus musculus [30]) was “Active” and the Activity (Mus musculus [31]) was “Active”. For the same compound, the Activity (Mus musculus [32]) was “Active”, the Activity (Mus musculus [33]) was “Active” and the Activity (Mus musculus [34]) was “Active”. For the same compound, the Activity (Mus musculus [35]) was “Active”.

Source: ChEMBL document CHEMBL4342428, “d-Limonene Ameliorates Myocardial Infarction Injury by Reducing Reactive Oxygen Species and Cell Apoptosis in a Murine Model” (2019)
